Measurements: ChEMBL document CHEMBL1127295, “Development of a model for the delta opioid receptor pharmacophore. 2. Conformationally restricted Phe3 replacements in the cyclic delta receptor selective tetrapeptide Tyr-c[D-Cys-Phe-D-Pen]OH (JOM-13)” (J Med Chem, 1994)

Assays:
[1] = molecular target: T1, Delta-type opioid receptor (Mus musculus, UniProt P32300); assay: Agonist activity was assessed in mouse vas deferens (MVD) smooth muscle bioassay; type: functional, tissue-based, Muscle tissue
Mu-type opioid receptor [2] = molecular target: T2, Mu-type opioid receptor (Cavia porcellus, UniProt P97266); assay: Binding affinity against mu opioid receptor using [3H]DAMGO in guinea pig ileum; type: tissue-based
T2 sequence (P97266 whole entry): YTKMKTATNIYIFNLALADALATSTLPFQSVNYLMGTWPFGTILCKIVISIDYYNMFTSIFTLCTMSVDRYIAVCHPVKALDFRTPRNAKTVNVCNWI

Mu-type opioid receptor [3] = molecular target: T2, Mu-type opioid receptor; assay: Agonist activity was assessed in an guinea pig ileum (GPI) smooth muscle bioassay; type: functional, tissue-based
[4] = molecular target: T1, Delta-type opioid receptor; assay: Binding affinity for delta opioid receptor using [3H]DPDPE from mouse vas deferens

T1 sequence (P32300 whole entry): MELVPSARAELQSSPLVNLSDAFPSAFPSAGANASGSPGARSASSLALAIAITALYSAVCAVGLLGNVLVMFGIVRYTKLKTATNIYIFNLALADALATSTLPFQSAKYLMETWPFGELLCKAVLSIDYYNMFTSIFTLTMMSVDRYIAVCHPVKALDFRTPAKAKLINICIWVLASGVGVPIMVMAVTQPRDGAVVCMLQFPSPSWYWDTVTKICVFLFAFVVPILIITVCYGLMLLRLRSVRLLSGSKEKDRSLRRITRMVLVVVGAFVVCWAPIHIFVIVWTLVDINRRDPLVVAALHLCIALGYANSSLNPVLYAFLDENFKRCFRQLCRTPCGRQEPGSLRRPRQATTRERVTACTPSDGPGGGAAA

| Structure (SMILES) | IC50 [1] [nM] | Ki (Mu-type opioid receptor [2]) [nM] | IC50 (Mu-type opioid receptor [3]) [nM] | Ki [4] [nM] |
| --- | --- | --- | --- | --- |
| C[C@@H](c1ccccc1)[C@H]1NC(=O)[C@@H](NC(=O)[C@@H](N)Cc2ccc(O)cc2)CSSC(C)(C)[C@@H](C(=O)O)NC1=O | 1110 | > 10000 | > 30000 | 237 |
| CC1(C)SSC[C@H](NC(=O)[C@@H](N)Cc2ccc(O)cc2)C(=O)N[C@H](Cc2ccccc2)C(=O)N[C@@H]1C(=O)O (stereo in doubt; 3) | 51.8 |  |  | 12.3 |
| CC1(C)SSC[C@H](NC(=O)[C@@H](N)Cc2ccc(O)cc2)C(=O)N[C@H](Cc2ccccc2)C(=O)N[C@@H]1C(=O)O (stereo in doubt; 4) | 9.72 |  |  | 4.8 |
| CC1(C)SSC[C@H](NC(=O)[C@@H](N)Cc2ccc(O)cc2)C(=O)N[C@H](Cc2ccccc2)C(=O)N[C@@H]1C(=O)O (stereo in doubt; 5) | 4.13 |  |  | 1.52 |
| CC1(C)SSC[C@H](NC(=O)[C@@H](N)Cc2ccc(O)cc2)C(=O)N[C@H](Cc2ccccc2)C(=O)N[C@@H]1C(=O)O (stereo in doubt; 6) |  |  |  | 70 |
